Test results published in article PMC6627486, “Ipomoeassin F Binds Sec61α to Inhibit Protein Translocation” (Journal of the American Chemical Society, 2019).

Key:
MDA-MB-231 = test: AlamarBlue cytotoxicity assay, MDA-MB-231; type: cell-based, human; conditions: Homo sapiens; MDA-MB-231, 72 h, AlamarBlue; read-out: Cytotoxicity (IC50)
Experimental: (§1) AlamarBlue Cytotoxicity Assay
(§2) MDA-MB-231, MCF-10A and HCT116. Viable cells were counted with a hemocytometer immediately before each experiment . Experiments were done in triplicate. First, 100 μL of MDA-MB-231 cells or MCF-10A cells at the density of 50,000 cells/mL was seeded in a 96-well plate (5,000 cells/well) and then incubated at 37 °C and 5% CO2 for 24 h. The compounds were dissolved in DMSO (dimethyl sulfoxide) to make drug stocks (10 mM). The stock solutions were diluted with the complete DMEM high glucose culture medium to make a series of gradient fresh working solutions right before each test. Subsequently, the cells were treated with 100 μL of the freshly made gradient working solution in a total volume of 200 μL/well for 72 h. After that, the media were discarded and 200 μL of the fresh complete medium containing 10% of AlamarBlue (resazurin) stock solution was added to each well. The plate was then incubated at 37 °C and 5% CO2 for another 3 h. Emission of each well at 620 nm was detected by a microplate reader (BioTek Synergy H1) at excitation 580 nm. […]
(§3) Microplate Reader. The percentage of viability compared to the negative control (DMSO-treated cells) […]
(§4) was determined. […]

[1] = AlamarBlue cytotoxicity assay, MCF-10A; type: cell-based, human; conditions: human, 72 h
Experimental: as §1, §2, §3, §4

MCF7 = test: MTT cytotoxicity assay, MCF7; type: cell-based, human; conditions: Homo sapiens; MCF7, 72 h, MTT; read-out: Cytotoxicity (IC50)
Experimental: Two human breast cancer cell lines (MDA-MB-231 and MCF7) and one human breast non-tumorigenic epithelial cell line (MCF-10A) were maintained in a DMEM high glucose culture medium supplemented with 10% fetal bovine serum (FBS) and 2 mM L-glutamine. The cells were grown in a humidified atmosphere of 5% CO2 and 95% air at 37 °C . The culture medi um w as changed every 2–4 days depending on cell density. Cell cultures were passaged once a week using 0.125% trypsin-EDTA to detach the cells from culture flasks/dishes.
The human colorectal cancer cell line HCT116 was maintained in McCoy’s 5A (modified) medium supplemented with 10% fetal bovine serum (FBS). The human embryonic kidney (HEK293T and HEK293 FRT TRex) cell line was maintained in DMEM high glucose culture medium supplemented with 10% fetal bovine serum (FBS).
HepG2 cells were cultured in DMEM supplemented with 10% fetal bovine serum and 2 mM L-glutamine at 37°C under 5% CO2.
Viable cells were counted with a hemocytometer immediately before each experiment. Experiments were done in triplicate. First, 100 μL of MCF7 cells at the density of 50,000 cells/mL were seeded in a 96-well plate (5,000 cells/well), which was incubated at 37 °C and 5% CO2 atmosphere for 24 h. The compounds were dissolved in DMSO (dimethyl sulfoxide) to make drug stocks (10 mM). The stock solutions were diluted with the complete DMEM high glucose culture medium to make a series of gradient fresh working solutions right before each test. Subsequently, the cells were treated with 100 μL of the freshly made gradient working solution in a total volume of 200 μL/well for 72 h. After that, the media were discarded and 200 μL of the fresh complete medium containing 10% of MTT stock solution (5 mg/mL) was added to each well. The plate was then incubated at 37 °C and 5% CO2 for 3 h. Next, 180 μL of the medium was discarded from each well , and 180 μL of DMSO was added to each well to dissol ve formazan crystals. Absorbance of formazan was detected by a microplate reader (BioTek Synergy H1) at 570 nm with 650 nm as the reference wavelength. The percentage of viability compared to the negative control (DMSO-treated cells) was determined . GraphPad Prism 6 software was used to make a plot of %

HCT116 = test: cells; type: cell-based; conditions: Homo sapiens, HCT-116; HCT116, 72 h, Alamar Blue, assayed separately; read-out: Cytotoxicity (IC50)
Experimental: as §1
as §2, with “nm. For HCT116 WT and mutant lines, cells were seeded at 1000 cells/ well in complete McCoys medium. Compounds were diluted from a DMSO stock into culture medium as described above. Cells were treated for 96 h, then viability measured with AlamarBlue, detected using the conditions described but with a BMG Fluostar Optima Microplate Reader. The percentage of viability compared to the negative control (DMSO-treated cells) was determined.” for “nm.”
HCT116 and HEK293T. Viable cells were counted using an automated cell counter (BioRad TC20) before each experiment. […] Emission of each well at 620 nm was detected by a microplate reader (Perkin Elmer EnSpire) at excitation 580 nm. The percentage of viability compared to the negative control (DMSO -treated cells) was determined. […]
Figure S1. […] (C) HCT116 colon carcinoma cells were treated with increasing concentrations of analogues 8, 14, 15, CT8, ipomoeassin F or carrier (0.1% DMSO) and cell viability was assessed at 72 h by the Alamar Blue assay (mean ± S.D., n = 4). […]

HCT-116 cells = test: Metabolic labelling of nascent proteins in HCT116 cells; type: cell-based, human; conditions: HCT-116, 1 μM, 35S labelling
Experimental: Metabolic Labelling Assays in HCT116 Cells
HCT116 cells were counted using an automated cell counter (BioRad TC20) immediately prior to each experiment. 3 ml of HCT116 cells at a density of 0.166x10^6 cells/mL were seeded to 6-well plates (0.5x10^6 cells/well) and then incubated at 37 °C and 5% CO 2 for 24 h. The compounds were dissolved in DMSO to make drug stocks (10 mM). The stock solutions were diluted with DMEM high glucose culture medium lacking methionine and cysteine to make a fresh working solution immediately prior to each test. Cells were washed twice and 1ml of fresh DMEM lacking methionine and cysteine was added to each well.
Subsequently, the cells were treated with 250 µl of compound solutions in a total volume of 1 ,250 µl/well.
The plate was then incubated at 37 °C and 5% CO 2 for 30 min before 100 µCi 35S-labelled methionine/cysteine was added (Expre35s35s protein labelling mix). Plates were incubated for a further 30 min, then media collected and cells harvested by scraping after four washes in ice-cold PBS. Total protein was acquired by RIPA extraction from the cell pellet, cytoplasmic fraction was acquired by partial permeabilization of the outer cell membranes with 0.15% Digitonin followed by centrifugation, secreted proteins were acquired by TCA precipitation of the media. […]

HepG2 cells = test: Pulse-chase analysis of protein secretion in HepG2 cells; type: cell-based, human; conditions: HepG2; 100 nM Ipom-F or 42 nM mycolactone 13.5 h; 100 nM bortezomib 2 h
Experimental: Pulse‐Chase Analysis of Protein Secretion in HepG2 Cells
The secretion assay was performed using a pulse–chase approach as described previously.20 HepG2 cells were treated with DMSO, 100 nM compound 8, 100 nM Ipom-F or […] mycolactone for 13.5 h before initiating the experiment, whereas pre-treatment with bortezomib 100 nM (Stratech) or 2.5 μg/ml brefeldin A were performed for 2 h and 1 h, respectively. Cells were starved in Met‐ and Cys‐free DMEM (Invitrogen) for 20 min at 37°C. Labeling was initiated by addition of fresh starvation medium containing […] [35S]Met and [35S]Cys protein labeling mix (Perkin Elmer; specific activity >1,000 Ci/mmol) for 15 min. After washing with PBS, cells were incubated in serum‐free DMEM supplemented with excess unlabeled L‐Met and L‐Cys (2 mM final concentration) for 2 h. The compounds were included throughout the starvation, pulse and chase. Secreted proteins in the media were recovered by precipitation with 13% trichloroacetic acid, washed in acetone and dissolved in 2x sample buffer. Cells were solubilized with Triton X‐100 lysis buffer (20 mM Tris, pH 7.5, 150 mM NaCl, 1% TX-100, 1 mM EDTA, 1 mM EGTA) supplemented with protease inhibitor cocktail and phenylmethylsulfonyl fluoride. Equal amounts

SMILES	IC50 (MDA-MB-231) [nM]	IC50 [1] [nM]	IC50 (MCF7) [nM]	IC50 (HCT116) [nM]	inhibition of production of secreted proteins compared with ipomoeassin F (HCT-116 cells)	secretory proteins in cell media (HepG2 cells)
C/C=C(\C)C(=O)O[C@@H]1[C@@H](O)[C@@H]2O[C@H]3[C@H](O[C@@H](CCCCC)CCCCCCC(=O)CCC(=O)OC[C@@H](O2)[C@H]1OC(=O)/C=C/c1ccc(OCc2cn(-c4cc5ccc(O)cc5oc4=O)nn2)cc1)O[C@H](C)[C@H](OC(C)=O)[C@@H]3O [compound 10]	8.9	11.3	172			
CCCCC[C@H]1CCCCCCC(=O)CCC(=O)OC[C@H]2O[C@@H](O[C@H]3[C@H](O1)O[C@H](C)[C@H](OC(C)=O)[C@@H]3O)[C@H](O)[C@@H](OC(=O)C(C)CC)[C@@H]2OC(=O)/C=C/c1ccccc1 (stereo partly drawn) [compound 15]				480	less potently	
C/C=C(\C)C(=O)O[C@@H]1[C@@H](O)[C@@H]2O[C@H]3[C@H](O[C@@H](CCCCC)CCCCCCC(=O)CCC(=O)OC[C@@H](O2)[C@H]1OC(=O)/C=C/c1ccc(OCc2cn(CCOCCOCCOCCNc4ccc([N+](=O)[O-])c5nonc45)nn2)cc1)O[C@H](C)[C@H](OC(C)=O)[C@@H]3O [compound 11]	2.8	2	21.1			
CC(C)C[C@H](NC(=O)[C@H](Cc1ccccc1)NC(=O)c1cnccn1)B(O)O [bortezomib, reference compound]						had no effect
C#CCOc1ccc(/C=C/C(=O)O[C@@H]2[C@@H](O)[C@@H]3O[C@H]4[C@H](O[C@@H](CCCCC)CCCCCCC(=O)CCC(=O)OC[C@@H](O3)[C@H]2OC(=O)/C(C)=C/C)O[C@H](C)[C@H](OC(C)=O)[C@@H]4O)cc1 [compound 3]	6.3	9.6	22.2			
